Data reported in patent publication US10947260B2, “Phosphinolactone derivatives and pharmaceutical uses thereof” (INSTITUT NATIONAL DE LA SANTE ET DE LA RECHERCHE MEDICALE …, priority 2016, dated 2021).

Legend:
[1] = tested on: mice; test: Forced swim test; format: in vivo; conditions: 5 mg/kg
Experimental: FIG. 13: Assays of compound 3b as positive modulator of the sigma-1 protein. […] Male Swiss mice aged 7 weeks (n=10-12 per group) were forced to swim for 15 min on Day 1 and 6 min on Day 2. They were given NE-100 (10 mg/kg ip), 10 min before compound 3b (10 mg/kg ip) and 20 min before the session of Day 2. Immobility was measured over the last 5 minutes of the session. The vehicle solution was distilled water. F(3.42)=4.45, p<0.01; **p<0.01 vs. group V/V, ##p<0.01 vs. group V/3b, Dunnet test. […] Wild-type mice (Wt, n=14-15) and S1R KO mice (n=9-10) were forced to swim 15 min on Day 1 and 6 min on Day 2. They were given compound 3b (10 mg/kg ip) 20 min before the session on Day 2. Immobility was measured during the last 5 minutes of the session. The vehicle solution was distilled water. F(3.49)=6.64, p<0.001; **p<0.01 vs. group Wt/V, Dunnett test. […] Male Swiss mice aged 7 weeks (n=8-23 per group) were forced to swim for 15 min on Day 1 and 6 min on Day 2. They were given igmesine (10, 30 mg/kg ip) and/or compound 3b (10 mg/kg ip) 20 min before the session on Day 2. NE-100 (10 mg/kg ip) was injected 10 min before igmesine and compound 3b. Immobility was measured during the last 5 minutes of the session. The vehicle solution was distilled water. F(6.90)=5.59, p<0.0001; ***p<0.001 vs. group V, ##p<0.01 vs. group V/Igmesine (10)+3B (5), Dunnett test.

[2] = tested on: mice treated with Aβ25-35
Experimental: The hippocampi were homogenized in 50 mM Tris-150 mM NaCl solution, pH 7.5, and sonicated for 20 s. After centrifugation at 16 100 g for 15 min at 4° C., the supernatants were used for ELISA assays in accordance with the manufacturer's instructions (ThermoScientific, Courtaboeuf, France; USCN, Wuhan, China). For each assay, absorbance was read at 450 nm and the concentration of each sample calculated in comparison with a standard curve. The results are expressed in ng or pg per mg of tissue and expressed as % of the control group.
On Day 9, the animals were sacrificed, the brains removed, the hippocampi and cortex dissected and frozen.

[3] = tested on: APPSwe mice; test: Biochemical analyses in hippocampus of APPSwe mice; format: in vivo; conditions: 1 mg/kg/j IP
Experimental: FIG. 12: Biochemical analyses of the effect of treatments with compound 3b (a) or 3c (b) in the hippocampus of APPSwe mice. Oxidative stress was measured via the level of peroxidation of membrane lipids at (a), or DCF fluorescence at (b). The expression levels of synaptophysin, Bax, IL1β and TNFα were measured using commercial Elisa kits. The values are given as % of the control group WT/V. N=6-8 per group. *p<0.05, **p<0.01 compared with group WT/V; #p<0.05, ##p<0.01 compared with group APPSwe/V; Student t-test.
After sacrifice, the hippocampus and brain cortex of the mice were dissected and frozen to −80° C. until use. The accumulation of reactive oxygen species was measured by fluorescence of 2′,7′-dichlorofluorescein (DCF) in the hippocampus of the mice ex vivo. DCF diacetate (0.5 μM) (Sigma-Aldrich) was added to SDS-soluble fractions of hippocampus extract. After 30 min at 37° C., DCF fluorescence was quantified (excitation at 485 nm, emission at 530 nm) in a Fluoroskan Ascent spectrofluorometer (Thermo Scientific, Waltham, USA), and normalized with the protein concentrations of the extracts.
Peroxidation of membrane lipids was measured using the cumene/xylenol method. The hippocampi were homogenized in methanol (1:10), centrifuged at 1 000 g for 5 min and the supernatant collected. Aliquots were added to a solution containing 1 mM FeSO4, 0.25 m H2SO4, 1 mM xylenol orange and incubated for 30 min at ambient temperature. Absorbance was measured at 580 nm (A5801), then 10 μl of 1 mM cumene hydroperoxide (CHP) was added and the sample incubated 30 min at ambient temperature. Absorbance was measured at 580 nm (A5802). Lipid peroxidation level was determined as CHP equivalents: CHP eq.=A5801/A5802×[CHP (nmol)]×dilution, and calculated in CHP eq. per tissue weight expressed as % of the control group.
Various biochemical parameters were analysed in the hippocampus of APPSwe mice after treatments with 3b, 2 mg/kg/j IP, or 3c, 1 mg/kg/j IP (FIG. 12).

[4] = tested on: mice treated with Aβ25-35; test: Passive avoidance test, Aβ25-35 model; format: in vivo; conditions: 0.1 and 0.3 mg/kg IP; Days 8 and 9
Experimental: The amyloid-β[25-35] peptide (Aβ25-35) and control peptide (Sc.Aβ) were obtained from Genepep (Saint-Jean-de-Vedas, France). They were solubilized in injectable distilled water at a concentration of 3 mg/ml and stored at −20° C. Before injection, the peptides were incubated at 37° C. for 4 days, which enabled the Aβ25-35 peptide but not the Sc.Aβ, to form oligomers. They were administered via intracerebroventricular route (ICV). The animals were anesthetized by inhaling 2.5% isoflurane (TEM) and were given 3 μl of peptide solution via direct ICV route (Haley and McCormick's method). For injection a 10 μl Hamilton micro-syringe was used at a flow rate of 1 μl/min.
The apparatus contained two compartments (15×20×15 cm in height) with one light part having walls in white PVC and the other dark with walls in black PVC and a grid floor. A vertical sliding door separated each compartment. A 60 W lamp was positioned 40 cm above the white compartment during the experiment. Electrical shocks (0.3 mA for 3 s) were delivered to the grid floor by means of a scrambled shock generator (Lafayette Instruments, Lafayette, United States). The vertical sliding door was first closed during the training session. […] Step-through latency (STL) i.e. the time taken to enter the dark compartment and the number of cries, were recorded. […] Step-through latency was recorded up to 300 s. […]

[5] = 1.5 mg/kg IP, control ScAβ animals

Structure (SMILES)	activity in forced swim test [1]	Bax in control animals ScAβ [2, 5]	Bax/Bcl2 ratio in control animals ScAβ [2, 5]	Bcl2 levels ([2]; 0.3-1.5 mg/kg IP)	IL1β level, hippocampus [3]	expression of Bax, hippocampus [3]	oxidative stress (DCF fluorescence), hippocampus [3]	synaptophysin level, hippocampus [3]	long-term memory response (passive avoidance step-through latency) [4]
CC1(C)COP(=O)(c2cccc(Cl)c2)C(C)(C)N1 (racemic) [Compound 3b, (±)-2-(3-Chlorophenyl)-2-oxo-3,3,5,5-tetramethyl-[1,4,2]-oxazaphosphinane]	not active	tends to increase Bax	tends to increase	no effect	–	–	–	–	–
CC1(C)COP(=O)(c2ccc(Cl)cc2)C(C)(C)N1 (racemic) [Compound 3c, (±)-2-(4-Chlorophenyl)-2-oxo-3,3,5,5-tetramethyl-[1,4,2]-oxazaphosphinane]	–	–	–	–	not	caused a decrease	not	not	appeared effective
